Source: patent publication US10736908B2, “Antiviral aryl-amide phosphodiamide compounds” (Merck Sharp & Dohme Corp., priority 2016, dated 2020)
Like-named read-outs stand apart in the source and are kept apart here.

Key:
HIV-1 (H9/IIIB strain) = assay: Multiple round HIV-1 infection assay (Viking assay) in MT4-GFP cells; type: cell-based; details: HIV-1 replication in MT4-GFP cells
Protocol: Assessing Antiviral Potency in a Multiple Round HIV-1 Infection Assay (Viking Assay)
The antiviral activity of the tenofovir prodrugs of the Examples herein was assessed in an assay that measures the rate of replication of HIV in cell culture, termed the Viking assay (VIral KINetics in Green cells) and performed as follows. HIV-1 replication was monitored using MT4-gag-GFP clone D3 (hereafter designated MT4-GFP), which are MT-4 cells modified to harbor a GFP reporter gene, the expression of which is dependent on the HIV-1 expressed proteins tat and rev. Productive infection of an MT4-GFP cell with HIV-1 results in GFP expression approximately 24 h post-infection. MT4-GFP cells were maintained at 37° C./5% CO2/90% relative humidity in RPMI 1640 supplemented with 10% fetal bovine serum, 100 U/ml penicillin/streptomycin, and 400 μg/ml G418 to maintain the reporter gene. For infections, MT4-GFP cells were placed in the same medium lacking G418 and infected overnight with HIV-1 (H9/IIIB strain) virus at an approximate multiplicity of infection of 0.01 in the same incubation conditions. […] Compound plates were prepared by dispensing compounds dissolved in DMSO into wells of 384 well poly-D-lysine-coated plates (0.2 μl/well) using an ECHO acoustic dispenser. Each compound was tested in a 10-point serial 3-fold dilution (typical final concentrations: 8.4 μM-0.42 nM). Controls included no inhibitor (DMSO only) and a combination of three antiviral agents (efavirenz, indinavir, an in-house integrase strand transfer inhibitor at final concentrations of 4 μM each). Cells were added (50 μL/well) to compound plates and the infected cells were maintained at 37° C./5% CO2/90% relative humidity.
Infected cells were quantified at two time points, ˜48 h and ˜72 h post-infection, by counting the number of green cells in each well using an Acumen eX3 scanner. The increase in the number of green cells over ˜24 h period gives the reproductive ratio, R0, which is typically 5-15 and has been shown experimentally to be in logarithmic phase (data not shown). Inhibition of R0 is calculated for each well, and IC50s determined by non-linear 4-parameter curve fitting.

[1] = Prodrug stability assay in bio-relevant media (FaSSIF with Pancreatin); type: in vitro ADME; details: HPLC peak area of prodrug at 5 h divided by that at 0 h; 0.5 mg/mL Pancreatin in FaSSIF, 37° C.
Protocol: Prodrug Stability Assay in Bio-Relevant Media
The following assay was employed to evaluate the stability of the prodrugs in simulated gastrointestinal tract conditions. Preparation of fasted state simulated intestinal fluid (FaSSIF) using Phares SIF Powder was carried out according to protocols from Phare Drug Delivery AG (Baselland, Switzerland). For sample preparation, 10 μL stock solutions (10 mM) of prodrug substance in DMSO was added to 990 μL of 0.5 mg/mL Pancreatin solution (Fisher CAS #8049-47˜6) in FaSSIF. Two samples were prepared for each compound. If the sample was a clear solution, it was directly analyzed by HPLC. If the sample was not clear, the sample was diluted with 100% MeCN, maintained at 37° C. and observed 5 h later. If the sample was clear, HPLC analysis was directly performed. If the sample was still not clear, the sample was diluted with 100% ACN and assayed by HPLC. All the samples were vortexed for 3 min and observed before injection. For the diluted samples, the area is multiplied by a dilution factor when the data is analyzed. The analysis was carried out with an Agilent 1100 series HPLC with autosampler. The column was a Poroshell 120 EC-C18, 4.6×50 mm, 2.7 μm. The flow rate was 1.8 mL/min, and the injection volume was 5 or 10 μL. UV detection was in the range 210-400 nm. The mobile phase consisted of solvent A (water plus 10 mM tetrabutylammonium bromide) and solvent B (acetonitrile) with a gradient of: 90% solvent A at 0 min, changing to 95% solvent B over 6 min, maintaining for 1.5 min, then reverting to 90% solvent A over 1.6 min. The HPLC peak area of the prodrug at 5 h was divided by the HPLC peak area of the prodrug at 0 h, to generate the % claimed parent ratio, which is summarized in Table 2 for gastrointestinal (GI) Tract stability.

[2] = 50% NHS (normal human serum), read-out: Viking, IC50 (50% NHS)
[3] = head prints 100% NHS (normal human serum), read-out: Viking, IC50 (100% NHS)
[4] = Human immunodeficiency virus 1, IIIB, head prints 100% NHS (normal human serum), read-out: Viking, IC50 (100% NHS)
[5] = Human immunodeficiency virus 1, IIIB, 50% NHS (normal human serum), read-out: Viking, IC50 (50% NHS)

GI Tract stability [1] [%]	SMILES	IC50 (HIV-1 (H9/IIIB strain); [2]) [nM]	IC50 (HIV-1 (H9/IIIB strain); [3]) [nM]	IC50 (HIV-1 (H9/IIIB strain); [4]) [nM]	IC50 (HIV-1 (H9/IIIB strain); [5]) [nM]
99.1	C[C@H](Cn1cnc2c(N)ncnc21)OCP(=O)(NC(=O)c1ccc(Cl)cc1)NC(C)(C)C(=O)OC1CCOCC1 (single isomer, unassigned) [Example 9B]	74.8	16.9		
72.61	CCCCCOC(=O)C(C)(C)NP(=O)(CO[C@H](C)Cn1cnc2c(N)ncnc21)NC(=O)c1ccc(F)cc1 (single isomer, unassigned) [Example 11A]	15		4.1	
84.76	CCCOC(=O)C(C)(C)NP(=O)(CO[C@H](C)Cn1cnc2c(N)ncnc21)NC(=O)c1ccc(Cl)cc1 (single isomer, unassigned) [Example 4B]	17.6	3.6		
90.33	C[C@H](Cn1cnc2c(N)ncnc21)OCP(=O)(NC(=O)c1ccc(Cl)cc1)NC(C)(C)C(=O)OC1CCC1 (single isomer, unassigned) [Example 6B]	13.5	4.1		
92.38	CCCCCOC(=O)C(C)(C)NP(=O)(CO[C@H](C)Cn1cnc2c(N)ncnc21)NC(=O)c1ccc(C)cc1 (single isomer, unassigned) [Example 18B]	10.5	2		
95.44	CCCCCOC(=O)C(C)(C)NP(=O)(CO[C@H](C)Cn1cnc2c(N)ncnc21)NC(=O)c1cccs1 (single isomer, unassigned) [Example 15A]			8.4	34.1
99.96	CC(C)OC(=O)C(C)(C)NP(=O)(CO[C@H](C)Cn1cnc2c(N)ncnc21)NC(=O)c1ccc(F)cc1 (single isomer, unassigned) [Example 10B]	89.8	25.7		
75.98	CCCCCOC(=O)C(C)(C)NP(=O)(CO[C@H](C)Cn1cnc2c(N)ncnc21)NC(=O)c1ccc(Cl)cc1 (single isomer, unassigned) [Example 3B]	10.9	2.3		
99.9	CCCCCOC(=O)C(C)(C)NP(=O)(CO[C@H](C)Cn1cnc2c(N)ncnc21)NC(=O)c1ccc(Cl)cc1 (single isomer, unassigned) [Example 3A]	33.2	5.1		

SMILES	GI Tract stability [1] [%]	IC50 (HIV-1 (H9/IIIB strain); [2]) [nM]	IC50 (HIV-1 (H9/IIIB strain); [3]) [nM]	IC50 (HIV-1 (H9/IIIB strain); [4]) [nM]	IC50 (HIV-1 (H9/IIIB strain); [5]) [nM]
CC(C)OC(=O)C(C)(C)NP(=O)(CO[C@H](C)Cn1cnc2c(N)ncnc21)NC(=O)c1ccc(Cl)cc1 (single isomer, unassigned) [Example 1B]	95.48			6.9	24.4
